Laboratory results as given in ChEMBL document CHEMBL1909046, “DrugMatrix in vitro pharmacology data”.

Experiments:
[1] = DRUGMATRIX: Calcium Channel Type L, Dihydropyridine radioligand binding (ligand: [3H] Nitrendipine); type: cell membranes, Rattus norvegicus, Wistar, Cerebral cortex, Membrane; conditions: Not Active = under 50% inhibition at 10 µM
Carbonic anhydrase 2 = Carbonic anhydrase 2 (Homo sapiens, UniProt P00918); assay: DRUGMATRIX: Carbonic Anhydrase II enzyme inhibition (substrate: 4-Nitrophenyl acetate (4-NPA)); type: tissue-based, Erythrocyte; conditions: erythrocyte; Not Active = under 50% inhibition at 10 µM
Leukotriene C4 synthase = target: T1, Leukotriene C4 synthase (Cavia porcellus, UniProt A6XA80); type: tissue-based, Lung;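 further: enzyme inhibition assay of leukotriene C4 synthase, using LTA4 as the substrate; in other assays of this panel Not Active means under 50% inhibition at 10 µM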
T1 sequence (A6XA80 whole entry): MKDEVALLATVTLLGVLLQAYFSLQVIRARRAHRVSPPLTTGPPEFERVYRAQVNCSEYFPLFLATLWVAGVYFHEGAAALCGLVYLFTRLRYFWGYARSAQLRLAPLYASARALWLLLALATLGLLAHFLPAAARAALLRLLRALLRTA

Melanocortin receptor 5 = Melanocortin receptor 5 (Homo sapiens, UniProt P33032); type: cell membranes, HEK293, Membrane; conditions: hek293; further: in other assays of this panel Not Active means under 50% inhibition at 10 µM
[2] = target: T2, Muscarinic acetylcholine receptor M5 (Homo sapiens, UniProt P08912); type: cell membranes, Membrane; conditions: cho-k1; further: in other assays of this panel Not Active means under 50% inhibition at 10 µM
T2 sequence (P08912 whole entry): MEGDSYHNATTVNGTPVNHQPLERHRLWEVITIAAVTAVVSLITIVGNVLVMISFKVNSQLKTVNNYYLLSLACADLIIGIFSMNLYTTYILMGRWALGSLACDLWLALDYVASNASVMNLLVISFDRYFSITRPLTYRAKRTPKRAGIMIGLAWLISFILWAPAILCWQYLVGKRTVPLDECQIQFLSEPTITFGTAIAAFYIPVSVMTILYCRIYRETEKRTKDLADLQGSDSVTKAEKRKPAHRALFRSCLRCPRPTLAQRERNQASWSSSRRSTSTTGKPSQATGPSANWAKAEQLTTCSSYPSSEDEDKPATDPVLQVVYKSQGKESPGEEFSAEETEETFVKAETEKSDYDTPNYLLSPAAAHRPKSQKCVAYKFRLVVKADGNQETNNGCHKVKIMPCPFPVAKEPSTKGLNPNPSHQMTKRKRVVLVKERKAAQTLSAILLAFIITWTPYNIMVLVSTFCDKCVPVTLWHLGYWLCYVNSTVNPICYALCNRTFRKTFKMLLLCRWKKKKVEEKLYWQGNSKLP

Mu-type opioid receptor = Mu-type opioid receptor (Homo sapiens, UniProt P35372); assay: DRUGMATRIX: Opiate mu (OP3, MOP) radioligand binding (ligand: [3H] Diprenorphine); type: cell membranes, CHO-K1, Membrane; conditions: cho-k1; Not Active = under 50% inhibition at 10 µM
Cytochrome P450 2C19 = Cytochrome P450 2C19 (Homo sapiens, UniProt P33261); conditions: bti-tn-5b1-4; further: in other assays of this panel Not Active means under 50% inhibition at 10 µM
Sequence of Cytochrome P450 2C19 (P33261 whole entry): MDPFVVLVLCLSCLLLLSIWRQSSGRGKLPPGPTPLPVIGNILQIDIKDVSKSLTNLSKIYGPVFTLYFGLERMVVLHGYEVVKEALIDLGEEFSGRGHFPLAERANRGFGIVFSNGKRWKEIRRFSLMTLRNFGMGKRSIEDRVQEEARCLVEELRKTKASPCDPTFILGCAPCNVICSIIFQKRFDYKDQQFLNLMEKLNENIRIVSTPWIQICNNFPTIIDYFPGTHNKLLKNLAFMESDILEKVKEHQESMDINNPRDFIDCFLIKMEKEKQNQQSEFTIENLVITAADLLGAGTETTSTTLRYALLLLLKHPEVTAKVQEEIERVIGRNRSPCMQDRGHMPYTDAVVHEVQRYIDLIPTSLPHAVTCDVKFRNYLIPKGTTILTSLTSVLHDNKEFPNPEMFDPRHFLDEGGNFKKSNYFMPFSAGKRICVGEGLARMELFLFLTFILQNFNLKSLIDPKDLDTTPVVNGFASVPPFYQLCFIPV

Sequence of Melanocortin receptor 5 (P33032 whole entry): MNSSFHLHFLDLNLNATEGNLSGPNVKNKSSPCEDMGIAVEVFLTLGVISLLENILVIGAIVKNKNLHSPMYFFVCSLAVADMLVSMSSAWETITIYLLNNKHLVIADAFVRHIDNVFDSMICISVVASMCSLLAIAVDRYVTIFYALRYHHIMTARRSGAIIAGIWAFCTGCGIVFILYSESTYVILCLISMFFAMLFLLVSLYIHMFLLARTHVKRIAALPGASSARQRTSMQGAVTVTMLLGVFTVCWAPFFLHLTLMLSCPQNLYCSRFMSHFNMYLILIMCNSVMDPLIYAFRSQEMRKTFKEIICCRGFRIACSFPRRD
Sequence of Mu-type opioid receptor (P35372 whole entry): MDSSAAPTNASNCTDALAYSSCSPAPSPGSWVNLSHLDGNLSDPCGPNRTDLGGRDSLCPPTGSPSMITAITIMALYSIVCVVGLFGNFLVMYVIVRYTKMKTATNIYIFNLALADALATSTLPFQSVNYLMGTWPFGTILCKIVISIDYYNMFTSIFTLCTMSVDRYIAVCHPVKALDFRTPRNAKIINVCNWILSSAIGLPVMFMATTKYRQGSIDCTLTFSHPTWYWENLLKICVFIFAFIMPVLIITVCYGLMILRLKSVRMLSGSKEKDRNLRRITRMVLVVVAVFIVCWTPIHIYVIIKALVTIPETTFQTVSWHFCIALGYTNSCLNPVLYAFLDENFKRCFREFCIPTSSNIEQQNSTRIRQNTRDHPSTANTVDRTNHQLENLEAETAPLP

Nn1nnc2ccccc21
Not Active: IC50 [1] | Ki [1] | IC50 (Carbonic anhydrase 2) | IC50 (Leukotriene C4 synthase) | IC50 (Melanocortin receptor 5) | IC50 [2] | IC50 (Mu-type opioid receptor) | IC50 (Cytochrome P450 2C19) | Ki (Cytochrome P450 2C19)

CCOC(=O)[C@H](CCc1ccccc1)N[C@@H](C)C(=O)N1Cc2ccccc2C[C@H]1C(=O)O
Not Active: IC50 [1] | Ki [1] | IC50 (Carbonic anhydrase 2) | IC50 (Leukotriene C4 synthase) | IC50 (Melanocortin receptor 5) | IC50 [2] | IC50 (Mu-type opioid receptor) | IC50 (Cytochrome P450 2C19) | Ki (Cytochrome P450 2C19)

CCOC(=O)[C@H](CCc1ccccc1)N[C@@H](C)C(=O)N1CCC[C@H]1C(=O)O
Not Active: IC50 [1] | Ki [1] | IC50 (Carbonic anhydrase 2) | IC50 (Leukotriene C4 synthase) | IC50 (Melanocortin receptor 5) | IC50 [2] | IC50 (Mu-type opioid receptor) | IC50 (Cytochrome P450 2C19) | Ki (Cytochrome P450 2C19)

C=C1/C(=C\C=C2/CCC[C@]3(C)[C@@H]([C@H](C)CCCC(C)C)CC[C@@H]23)C[C@@H](O)C[C@@H]1O [ALFACALCIDOL]
Not Active: IC50 [1] | Ki [1] | IC50 (Carbonic anhydrase 2) | IC50 (Leukotriene C4 synthase) | IC50 (Melanocortin receptor 5) | IC50 [2] | IC50 (Mu-type opioid receptor) | IC50 (Cytochrome P450 2C19) | Ki (Cytochrome P450 2C19)

CCCCCC[C@H]1C(=O)O[C@H](C)[C@H](NC(=O)c2cccc(NC=O)c2O)C(=O)O[C@@H](C)[C@@H]1OC(=O)CC(C)C [ANTIMYCIN A]
Not Active: IC50 [1] | Ki [1] | IC50 (Carbonic anhydrase 2) | IC50 (Leukotriene C4 synthase) | IC50 (Melanocortin receptor 5) | IC50 [2] | IC50 (Mu-type opioid receptor) | IC50 (Cytochrome P450 2C19) | Ki (Cytochrome P450 2C19)

CO[C@H]1[C@@H](O)[C@H](N)[C@@H](O[C@H]2O[C@H]([C@H](C)N)CC[C@H]2N)[C@H](O)[C@@H]1N(C)C(=O)CN [ASTROMICIN]
Not Active: IC50 [1] | Ki [1] | IC50 (Carbonic anhydrase 2) | IC50 (Leukotriene C4 synthase) | IC50 (Melanocortin receptor 5) | IC50 [2] | IC50 (Mu-type opioid receptor) | IC50 (Cytochrome P450 2C19) | Ki (Cytochrome P450 2C19)

[N-]=[N+]=CC(=O)OC[C@H](N)C(=O)O [AZASERINE]
Not Active: IC50 [1] | Ki [1] | IC50 (Carbonic anhydrase 2) | IC50 (Leukotriene C4 synthase) | IC50 (Melanocortin receptor 5) | IC50 [2] | IC50 (Mu-type opioid receptor) | IC50 (Cytochrome P450 2C19) | Ki (Cytochrome P450 2C19)

CC[C@H]1OC(=O)[C@H](C)[C@@H](O[C@H]2C[C@@](C)(OC)[C@@H](O)[C@H](C)O2)[C@H](C)[C@@H](O[C@@H]2O[C@H](C)C[C@H](N(C)C)[C@H]2O)[C@](C)(O)C[C@@H](C)CN(C)[C@H](C)[C@@H](O)[C@]1(C)O [AZITHROMYCIN]
Not Active: IC50 [1] | Ki [1] | IC50 (Carbonic anhydrase 2) | IC50 (Leukotriene C4 synthase) | IC50 (Melanocortin receptor 5) | IC50 [2] | IC50 (Mu-type opioid receptor) | IC50 (Cytochrome P450 2C19) | Ki (Cytochrome P450 2C19)

CC(C)(C)c1ccc(S(=O)(=O)/C=C/C#N)cc1 [BAY-11-7085]
Not Active: IC50 [1] | Ki [1] | IC50 (Carbonic anhydrase 2) | IC50 (Leukotriene C4 synthase) | IC50 (Melanocortin receptor 5) | IC50 [2] | IC50 (Mu-type opioid receptor) | IC50 (Cytochrome P450 2C19) | Ki (Cytochrome P450 2C19)

CCc1oc2ccccc2c1C(=O)c1cc(Br)c(O)c(Br)c1 [BENZBROMARONE]
Not Active: IC50 [1] | Ki [1] | IC50 (Carbonic anhydrase 2) | IC50 (Leukotriene C4 synthase) | IC50 (Melanocortin receptor 5) | IC50 [2] | IC50 (Mu-type opioid receptor) | IC50 (Cytochrome P450 2C19) | Ki (Cytochrome P450 2C19)

O=c1cc(-c2ccccc2)oc2ccc3ccccc3c12 [BETA-NAPHTHOFLAVONE]
Not Active: IC50 [1] | Ki [1] | IC50 (Carbonic anhydrase 2) | IC50 (Leukotriene C4 synthase) | IC50 (Melanocortin receptor 5) | IC50 [2] | IC50 (Mu-type opioid receptor) | IC50 (Cytochrome P450 2C19) | Ki (Cytochrome P450 2C19)

CS(=O)(=O)OCCCCOS(C)(=O)=O [BUSULFAN]
Not Active: IC50 [1] | Ki [1] | IC50 (Carbonic anhydrase 2) | IC50 (Leukotriene C4 synthase) | IC50 (Melanocortin receptor 5) | IC50 [2] | IC50 (Mu-type opioid receptor) | IC50 (Cytochrome P450 2C19) | Ki (Cytochrome P450 2C19)

C/C=C\c1ccc(O)c(OC)c1 [ISOEUGENOL]
Not Active: IC50 [1] | Ki [1] | IC50 (Carbonic anhydrase 2) | IC50 (Leukotriene C4 synthase) | IC50 (Melanocortin receptor 5) | IC50 [2] | IC50 (Mu-type opioid receptor)

CC[C@H](C)C(=O)O[C@H]1C[C@@H](C)C=C2C=C[C@H](C)[C@H](CC[C@@H]3C[C@@H](O)CC(=O)O3)[C@H]21 [LOVASTATIN]
Not Active: IC50 [1] | Ki [1] | IC50 (Carbonic anhydrase 2) | IC50 (Leukotriene C4 synthase) | IC50 (Melanocortin receptor 5) | IC50 [2] | IC50 (Mu-type opioid receptor)

CNC(=C[N+](=O)[O-])NCCSCc1csc(CN(C)C)n1 [NIZATIDINE]
Not Active: IC50 [1] | Ki [1] | IC50 (Carbonic anhydrase 2) | IC50 (Leukotriene C4 synthase) | IC50 (Melanocortin receptor 5) | IC50 [2] | IC50 (Mu-type opioid receptor)

OCCN1CCN(CCCN2c3ccccc3Sc3ccc(Cl)cc32)CC1 [PERPHENAZINE]
Not Active: IC50 [1] | Ki [1] | IC50 (Carbonic anhydrase 2) | IC50 (Leukotriene C4 synthase) | IC50 (Melanocortin receptor 5) | IC50 [2] | IC50 (Mu-type opioid receptor)

CC(C)(Sc1cc(C(C)(C)C)c(O)c(C(C)(C)C)c1)Sc1cc(C(C)(C)C)c(O)c(C(C)(C)C)c1 [PROBUCOL]
Not Active: IC50 [1] | Ki [1] | IC50 (Carbonic anhydrase 2) | IC50 (Leukotriene C4 synthase) | IC50 (Melanocortin receptor 5) | IC50 [2] | IC50 (Mu-type opioid receptor)
